Results from PubChem BioAssay (NCI).
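Five concentrations, 48 hours, 96-well plates. Definition used: TGI = concentration required for complete inhibition of growth.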

Key:
Assay in all cases: NCI tumour cell line growth inhibition, 48 h
[1] = system: OVCAR-4 ovarian
[2] = system: MDA-MB-435
[3] = system: COLO 205 colon
[4] = system: TK-10 renal
[5] = system: MDA-MB-231 breast
[6] = system: PC-3 prostate
[7] = system: LOX IMVI melanoma
[8] = system: UO-31 renal
[9] = system: HCT-116 colon
[10] = system: NCI-H460 lung
[11] = system: SF-268 CNS
[12] = system: ACHN renal
[13] = system: 786-0 renal
[14] = system: U251 CNS
[15] = system: HOP-92 NSCLC
[16] = system: A498 renal
[17] = system: EKVX NSCLC
[18] = system: SF-295 CNS
[19] = system: HT29 colon
[20] = system: SF-539 CNS

Row | Structure (SMILES) | TGI [1] [µM] | TGI [2] [µM] | TGI [3] [µM] | TGI [4] [µM] | TGI [5] [µM] | TGI [6] [µM] | TGI [7] [µM] | TGI [8] [µM] | TGI [9] [µM] | TGI [10] [µM] | TGI [11] [µM] | TGI [12] [µM] | TGI [13] [µM] | TGI [14] [µM] | TGI [15] [µM] | TGI [16] [µM] | TGI [17] [µM] | TGI [18] [µM] | TGI [19] [µM] | TGI [20] [µM]
1 | CC(C)[C@H](NC(=O)[C@@H](O)[C@H](N)Cc1ccccc1)C(=O)N[C@@H](Cc1ccccc1)C(=O)O | > 100 | > 100 | > 100 | > 100 | > 100 | > 100 | > 100 | > 100 | > 100 | > 100 | > 100 | > 100 | > 100 | > 100 | > 100 | > 100 | > 100 | > 100 | – | –
2 | O=C1c2cccnc2-c2nccc3ccnc1c23 | 5.46 | 0.38 | 1.12 | – | 6.52 | 3.45 | 2.22 | 3.16 | 0.0784 | 12.8 | 6.58 | 1.46 | 2.04 | 3.49 | 2.36 | 13 | 3.75 | 2.78 | 2.09 | 4.81
3 | N=C(N)c1ccc(-c2ccc(-c3ccc(C(=N)N)cc3)o2)cc1 | > 100 | > 100 | 43.2 | 63 | > 100 | > 100 | – | 68.1 | > 100 | 40 | > 100 | > 100 | 59.7 | 34.7 | > 100 | > 100 | 91.6 | > 100 | > 100 | > 100
4 | O=C1C(c2c(O)[nH]c3ccc(S(=O)(=O)N(CCO)CCO)cc23)=Nc2ccccc21 | > 100 | > 100 | > 100 | > 100 | > 100 | > 100 | > 100 | > 100 | > 100 | > 100 | > 100 | > 100 | > 100 | > 100 | > 100 | > 100 | > 100 | > 100 | > 100 | –
5 | CC(=O)OCC1OC(OC2CC3C(C)(C)C(=O)CC[C@]3(C)C3CC[C@]45C[C@]4(CCC5[C@@H](C)CC(O)C(O)C(C)(C)O)[C@]23C)C(O)C(O)C1O (stereo partly drawn) | 25.7 | 21.2 | 18.5 | 28.1 | 19.5 | 21.5 | 12.6 | 32.2 | 20 | 27.1 | 21.8 | 30 | 26.5 | 20.3 | 13.7 | – | 29.9 | 27.1 | 16.7 | 28.8
6 | COc1cc(CNC(=O)CCCCCCCCCCSSCCCCCCCCCCC(=O)NCc2ccc(O)c(OC)c2)ccc1O | > 10 | > 10 | > 10 | > 10 | > 10 | > 10 | > 10 | – | > 10 | > 10 | > 10 | > 10 | > 10 | > 10 | > 10 | > 10 | > 10 | > 10 | > 10 | > 10
7 | CCOC(=O)c1cc(C2(OC)CCN(Cc3ccccc3)C2=O)c(-c2cc(C)no2)[nH]1 (stereo not drawn) | > 100 | > 100 | > 100 | > 100 | > 100 | > 100 | – | > 100 | > 100 | > 100 | > 100 | > 100 | > 100 | > 100 | > 100 | > 100 | > 100 | > 100 | > 100 | –
8 | CC1(C)CC[C@]2(C(=O)O)CC[C@]3(C)C(=CC[C@@H]4[C@@]5(C)CC[C@@H]6OC(C)(C)OC[C@@]6(C)[C@@H]5CC[C@]43C)[C@H]2C1 | > 100 | 25.6 | 28.8 | 32.7 | 12.9 | 19.1 | 20.7 | 25.6 | 20.9 | 20 | 36.5 | 15.7 | 24 | 20.4 | – | 51.7 | 19.4 | 27.6 | 18.8 | 33.5
9 | COc1ccc(N=C2C(=Nc3ccc(OC)cc3)N(c3ccccc3[N+](=O)[O-])C(=S)N2c2ccc(OC)cc2)cc1 | – | > 100 | 30.8 | > 100 | 90.9 | > 100 | – | > 100 | > 100 | – | > 100 | > 100 | > 100 | > 100 | > 100 | – | > 100 | > 100 | – | > 100
10 | CC1(C)OC([C@H](O)CO)C([C@H]2NCCS2)O1 (stereo partly drawn) | > 100 | > 100 | > 100 | > 100 | > 100 | > 100 | > 100 | > 100 | > 100 | > 100 | > 100 | > 100 | > 100 | > 100 | > 100 | > 100 | > 100 | > 100 | > 100 | –
11 | Cc1ccc(S(=O)(=O)N/N=C2/CC[C@H](C(C)(C)C)C[C@@H]2C)cc1 | 20 | 32.7 | 35.4 | 30.4 | 43.7 | 36.8 | 27.9 | 26.6 | 29.3 | 32.2 | – | 30.3 | 31.8 | 33.5 | 33.4 | 31.6 | 32.2 | 29.2 | 30.7 | 32.5
